# Assay results published in ChEMBL document CHEMBL1132353, “New 4-point pharmacophore method for molecular similarity and diversity applications: overview of the method and applications, including a novel approach to the design of combinatorial libraries containing privileged substructures” (J Med Chem, 1999).
# Columns and labels:
# Prothrombin = Prothrombin (Homo sapiens, UniProt P00734)
# Description: Inhibitory activity against thrombin
# Coagulation factor X = Coagulation factor X (Homo sapiens, UniProt P00742); test: Inhibitory activity against Coagulation factor Xa
# Sequence of Coagulation factor X (P00742 41-179 limits assumed): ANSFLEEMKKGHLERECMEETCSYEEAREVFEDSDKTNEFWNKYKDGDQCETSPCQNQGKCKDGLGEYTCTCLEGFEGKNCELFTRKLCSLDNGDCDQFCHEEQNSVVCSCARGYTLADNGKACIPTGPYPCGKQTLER
# Sequence of Coagulation factor X (P00742 235-488 limits assumed): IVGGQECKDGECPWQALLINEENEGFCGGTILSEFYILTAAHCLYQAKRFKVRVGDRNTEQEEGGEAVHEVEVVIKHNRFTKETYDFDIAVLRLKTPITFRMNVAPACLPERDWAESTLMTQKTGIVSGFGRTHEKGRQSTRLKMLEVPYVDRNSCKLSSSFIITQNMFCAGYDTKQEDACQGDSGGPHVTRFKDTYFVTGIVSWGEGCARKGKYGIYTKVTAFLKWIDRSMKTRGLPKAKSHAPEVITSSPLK
SMILES,Ki (Prothrombin),Ki (Coagulation factor X)
O=S(=O)(Nc1cccc(OCCNc2ccncc2)c1)c1ccccc1,0.023 µM,
C[C@H]1CNc2cc(S(=O)(=O)N[C@H](CCCNC(=N)N)C(=O)N3CCCCC3C(=O)O)ccc2C1 (stereo partly drawn),0.019 µM,
CC(=N)N1CCC(Oc2ccc(C(Cc3ccc4ccc(C(=N)N)cc4c3)C(=O)O)cc2)CC1 (stereo not drawn),,0.013 µM
